Laboratory results: ChEMBL document CHEMBL1157081, “HPLC-based activity profiling for GABA(A) receptor modulators: a new dihydroisocoumarin from Haloxylon scoparium” (J Nat Prod, 2010)
Activity calls are given as the source filed them. The rule behind the calls is not given here.

Columns and labels:
[1] = Allosteric modulation at GABA A receptor alpha-1-beta-2-gamma-2S expressed in Xenopus oocytes assessed as enhancement of GABA-induced chloride current; format: cell-based; details: Oocyte
Oocyte [2] = assay: Allosteric modulation at GABA A receptor alpha-1-beta-2-gamma-2S expressed in Xenopus oocytes assessed as enhancement of GABA-induced chloride current at 500 uM; format: cell-based
Oocyte [3] = assay: Agonist activity at GABA A receptor alpha-1-beta-2-gamma-2S expressed in Xenopus oocytes assessed as enhancement of chloride current at 500 uM; format: functional, cell-based
Oocyte [4] = assay: Allosteric modulation at GABA A receptor alpha-1-beta-2-gamma-2S expressed in Xenopus oocytes assessed as enhancement of GABA-induced chloride current at >=3 uM; format: cell-based

EC50 [1] [µM]	Activity (Oocyte [2]) [%]	Activity (Oocyte [3])	Activity (Oocyte [4])	Compound
140	145	inactive	Active	COc1c2c(cc3c1C(=O)O[C@H](c1ccccc1)C3)OCO2
237	–	–	–	CC1(C)C2CCC1(C)C(O)C2 (racemic) [BORNEOL]

Compound	EC50 [1] [µM]	Activity (Oocyte [2]) [%]	Activity (Oocyte [3])	Activity (Oocyte [4])
CC(C)=CCC[C@](C)(O[C@@H]1O[C@H](CO[C@@H]2O[C@@H](CO)[C@H](O)[C@H]2O)[C@@H](O)[C@H](O)[C@H]1O)[C@H]1CC[C@]2(C)[C@@H]1[C@H](O)C[C@@H]1[C@@]3(C)CC[C@H](O[C@@H]4O[C@H](CO)[C@@H](O)[C@H](O)[C@H]4O[C@@H]4O[C@H](CO)[C@@H](O)[C@H](O)[C@H]4O)C(C)(C)[C@@H]3CC[C@]12C [GINSENOSIDE RC]	53.2	–	–	–
